Experimental findings from patent US7183260B2, “C-terminal modified oxamyl dipeptides as inhibitors of the ICE/ced-3 family of cysteine proteases” (Idun Pharmaceuticals, Inc., priority 1998, dated 2007) are described below.

What all share (assay type): biochemical
Common to all, as to conditions: continuous assay 60 min, reaction initiated by adding enzyme to substrate-inhibitor mixture

One assay addresses T1, mICE (Mus musculus, UniProt P29452).
T1 sequence (P29452 123-296 limits assumed): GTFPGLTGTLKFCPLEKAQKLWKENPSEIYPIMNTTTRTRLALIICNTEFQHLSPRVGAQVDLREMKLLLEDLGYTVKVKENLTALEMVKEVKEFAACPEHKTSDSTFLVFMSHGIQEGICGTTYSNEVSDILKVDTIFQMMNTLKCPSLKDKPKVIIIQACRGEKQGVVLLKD
T1 sequence (P29452 315-402 limits assumed): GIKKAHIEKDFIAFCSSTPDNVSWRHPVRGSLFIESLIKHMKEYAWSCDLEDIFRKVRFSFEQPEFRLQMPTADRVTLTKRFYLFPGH
Put plainly: Dissociation constant Ki and irreversible rate constant k3 for irreversible inhibitors (ICE).

A further assay addresses T2, MCH-2 (Homo sapiens, UniProt P55212).
T2 sequence (P55212 24-179 limits assumed): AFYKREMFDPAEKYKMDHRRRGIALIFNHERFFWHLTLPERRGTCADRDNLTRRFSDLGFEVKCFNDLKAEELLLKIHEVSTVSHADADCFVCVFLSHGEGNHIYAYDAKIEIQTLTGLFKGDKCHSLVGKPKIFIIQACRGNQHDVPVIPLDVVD
T2 sequence (P55212 194-293 limits assumed): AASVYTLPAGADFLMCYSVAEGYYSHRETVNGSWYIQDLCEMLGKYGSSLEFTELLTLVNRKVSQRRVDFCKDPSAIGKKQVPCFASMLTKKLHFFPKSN
Put plainly: Dissociation constant Ki and irreversible rate constant k3 for irreversible inhibitors (Mch2).

Another assay deals with MCH-5 (Homo sapiens, UniProt Q14790). Put plainly: Dissociation constant Ki and irreversible rate constant k3 for irreversible inhibitors (Mch5).
Chain of MCH-5 (Q14790 217-374 limits assumed, species assumed): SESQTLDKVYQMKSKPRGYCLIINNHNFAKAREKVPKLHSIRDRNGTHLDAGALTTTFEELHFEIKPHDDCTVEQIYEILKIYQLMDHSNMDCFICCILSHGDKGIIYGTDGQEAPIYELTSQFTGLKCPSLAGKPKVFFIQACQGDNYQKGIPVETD
Chain of MCH-5 (Q14790 385-479 limits assumed, species assumed): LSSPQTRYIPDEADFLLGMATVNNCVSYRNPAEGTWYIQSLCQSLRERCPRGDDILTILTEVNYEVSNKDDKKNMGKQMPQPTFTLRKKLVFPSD
A further assay addresses T3, CPP32 (Homo sapiens, UniProt P42574).
T3 sequence (P42574 29-175 limits assumed): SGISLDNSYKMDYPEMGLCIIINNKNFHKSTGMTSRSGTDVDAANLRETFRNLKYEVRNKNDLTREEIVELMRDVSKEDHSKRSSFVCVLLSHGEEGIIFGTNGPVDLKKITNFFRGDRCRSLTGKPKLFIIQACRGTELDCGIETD
T3 sequence (P42574 176-277 limits assumed): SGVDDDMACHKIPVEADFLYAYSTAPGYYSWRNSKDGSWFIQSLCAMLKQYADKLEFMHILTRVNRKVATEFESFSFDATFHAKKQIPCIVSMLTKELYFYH
Put plainly: Dissociation constant Ki and irreversible rate constant k3 for irreversible inhibitors (CPP32).

As for `CC(C)[C@H](NC(=O)C(=O)Nc1cccc2ccccc12)C(=O)N[C@@H](CC(=O)O)C(=O)COc1c(-c2ccccc2)oc2ccccc2c1=O` [Example 9], at mICE, the Ki is 128 nM and the “mICE k3/Ki” value is given as 82,100 moles^−1 seconds^−1. The Ki at MCH-2 stood at 336 nM. Moreover, on MCH-5, the Ki turned out to be 453 nM and the “MCH-5 k3/Ki” value turned out to be 0 mol⁻¹ s⁻¹. Besides, at CPP32, the “CPP32 k3/Ki” value is 43,600 moles^−1 seconds^−1 and the Ki was 59 nM.
`CC(C)[C@H](NC(=O)C(=O)NC12CC3CC(CC(C3)C1)C2)C(=O)N[C@@H](CC(=O)O)C(=O)COc1c(F)c(F)cc(F)c1F` [Example 89]: at mICE, the Ki turned out to be 52 nM and the “mICE k3/Ki” value is 184,000 moles^−1 seconds^−1. At MCH-2, the Ki was determined as 152 nM and the “MCH-2 k3/Ki” value was 10,700 moles^−1 seconds^−1. Moreover, at MCH-5, the Ki was 40 nM and the “MCH-5 k3/Ki” value is 59,900 moles^−1 seconds^−1. In addition, at CPP32, the “CPP32 k3/Ki” value was 6,330 moles^−1 seconds^−1 and the Ki turned out to be 1510 nM.
On to `CC(C)[C@H](NC(=O)C(=O)NCCc1ccccc1)C(=O)N[C@@H](CC(=O)O)C(=O)COc1c(F)c(F)cc(F)c1F` [Example 80], for which, at mICE, the Ki is 182 nM and the “mICE k3/Ki” value is recorded as 77,100 moles^−1 seconds^−1. In addition, at MCH-2, the Ki was determined as 175 nM and the “MCH-2 k3/Ki” value is given as 12,600 moles^−1 seconds^−1. Further, at MCH-5, the Ki is 162 nM and the “MCH-5 k3/Ki” value is reported as 16,600 moles^−1 seconds^−1. In addition, at CPP32, the “CPP32 k3/Ki” value is 13,400 moles^−1 seconds^−1 and the Ki is 515 nM.
With `C[C@H](NC(=O)C(=O)Nc1cc(C(F)(F)F)ccc1N1CCCC1)C(=O)N[C@@H](CC(=O)O)C(=O)COP(=O)(c1ccccc1)c1ccccc1` [Example 46], on mICE, the Ki came to 5.3 nM and the “mICE k3/Ki” value is on record as 1,503,000 moles^−1 seconds^−1. Besides, on MCH-2, the Ki is 7.3 nM and the “MCH-2 k3/Ki” value is reported as 202,000 moles^−1 seconds^−1. Besides, at MCH-5, the Ki was 4.4 nM and the “MCH-5 k3/Ki” value was 933,000 moles^−1 seconds^−1. Further, at CPP32, the “CPP32 k3/Ki” value was 78,600 moles^−1 seconds^−1 and the Ki is 52 nM.
Regarding `CC(C)[C@H](NC(=O)C(=O)Nc1ccccc1C(F)(F)F)C(=O)N[C@@H](CC(=O)O)C(=O)COc1c(F)c(F)cc(F)c1F` [Example 92], on mICE, the Ki turned out to be 11 nM and the “mICE k3/Ki” value was 1,044,000 moles^−1 seconds^−1. For the same molecule, at MCH-2, the Ki was 12 nM and the “MCH-2 k3/Ki” value is 261,000 moles^−1 seconds^−1. Further, on MCH-5, the Ki was 6 nM and the “MCH-5 k3/Ki” value is 41,000 moles^−1 seconds^−1. Further, at CPP32, the “CPP32 k3/Ki” value is 57,400 moles^−1 seconds^−1 and the Ki was found to be 175 nM.
With `CCCCCCCc1ccc(NC(=O)C(=O)N[C@H](C(=O)N[C@@H](CC(=O)O)C(=O)COc2c(F)c(F)cc(F)c2F)C(C)C)cc1` [Example 94], on mICE, the Ki worked out at 24 nM and the “mICE k3/Ki” value is on record as 657,000 moles^−1 seconds^−1. Also, on MCH-2, the Ki was determined as 59 nM and the “MCH-2 k3/Ki” value is reported as 50,000 moles^−1 seconds^−1. On MCH-5, the Ki worked out at 12 nM and the “MCH-5 k3/Ki” value is given as 155,000 moles^−1 seconds^−1. Further, at CPP32, the “CPP32 k3/Ki” value was 11,200 moles^−1 seconds^−1 and the Ki stood at 1110 nM.
Turning to `CC(C)[C@H](NC(=O)C(=O)Nc1ccccc1-c1ccccc1)C(=O)N[C@@H](CC(=O)O)C(=O)COc1c(F)c(F)cc(F)c1F` [Example 83], at mICE, the Ki was determined as 135 nM and the “mICE k3/Ki” value was 127,000 moles^−1 seconds^−1. Also, on MCH-2, the Ki is 85 nM and the “MCH-2 k3/Ki” value is on record as 31,700 moles^−1 seconds^−1. At MCH-5, the Ki was found to be 30 nM and the “MCH-5 k3/Ki” value is 65,300 moles^−1 seconds^−1. At CPP32, the “CPP32 k3/Ki” value is reported as 25,400 moles^−1 seconds^−1 and the Ki is 251 nM.
Take `C[C@H](NC(=O)C(=O)Nc1cc(C(C)(C)C)ccc1C(C)(C)C)C(=O)N[C@@H](CC(=O)O)C(=O)COP(=O)(c1ccccc1)c1ccccc1` [Example 59]: on mICE, the Ki was found to be 45 nM and the “mICE k3/Ki” value is 211,000 moles^−1 seconds^−1. In addition, on MCH-2, the Ki was found to be 15 nM and the “MCH-2 k3/Ki” value is 308,000 moles^−1 seconds^−1. In addition, at MCH-5, the Ki worked out at 5.5 nM and the “MCH-5 k3/Ki” value is 1,340,000 moles^−1 seconds^−1. Besides, on CPP32, the “CPP32 k3/Ki” value is listed as 104,000 moles^−1 seconds^−1 and the Ki came to 71 nM.
As to `C[C@H](NC(=O)C(=O)Nc1ccccc1C(C)(C)C)C(=O)N[C@@H](CC(=O)O)C(=O)COC(=O)c1c(Cl)cccc1Cl` [Example 76], at mICE, the Ki worked out at 19 nM and the “mICE k3/Ki” value is listed as 537,000 moles^−1 seconds^−1. In addition, at MCH-2, the Ki amounted to 235 nM and the “MCH-2 k3/Ki” value was 6,960 moles^−1 seconds^−1. Further, on MCH-5, the Ki turned out to be 22 nM and the “MCH-5 k3/Ki” value was 30,200 moles^−1 seconds^−1. In addition, on CPP32, the “CPP32 k3/Ki” value is reported as 62,900 moles^−1 seconds^−1 and the Ki was 85 nM.
With `Cc1cc(OCC(=O)[C@H](CC(=O)O)NC(=O)[C@@H](NC(=O)C(=O)Nc2cccc3ccccc23)C(C)C)cc(=O)o1` [Example 8], the Ki at MCH-2 worked out at 254 nM; at MCH-5, 29 nM; on CPP32 it was 26 nM.
With `COc1ccccc1NC(=O)C(=O)N[C@H](C(=O)N[C@@H](CC(=O)O)C(=O)COc1c(F)c(F)cc(F)c1F)C(C)C` [Example 95], on mICE, the Ki stood at 6 nM and the “mICE k3/Ki” value is 2,068,000 moles^−1 seconds^−1. Further, on MCH-2, the Ki is 88 nM and the “MCH-2 k3/Ki” value is 61,500 moles^−1 seconds^−1. Besides, on MCH-5, the Ki came to 3 nM and the “MCH-5 k3/Ki” value is 2,680,000 moles^−1 seconds^−1. Moreover, at CPP32, the “CPP32 k3/Ki” value is given as 10,800 moles^−1 seconds^−1 and the Ki was 1090 nM.
Take `C[C@H](NC(=O)C(=O)Nc1ccc(F)cc1)C(=O)N[C@@H](CC(=O)O)C(=O)COP(=O)(c1ccccc1)c1ccccc1` [Example 43]: on mICE, the Ki is 13 nM and the “mICE k3/Ki” value was 956,000 moles^−1 seconds^−1. Besides, at MCH-2, the Ki is 9 nM and the “MCH-2 k3/Ki” value is recorded as 424,000 moles^−1 seconds^−1. For the same molecule, on MCH-5, the Ki is 3.6 nM and the “MCH-5 k3/Ki” value was 2,300,000 moles^−1 seconds^−1. In addition, on CPP32, the “CPP32 k3/Ki” value is given as 268,000 moles^−1 seconds^−1 and the Ki is 52 nM.
As for `C[C@H](NC(=O)C(=O)Nc1ccccc1Cl)C(=O)N[C@@H](CC(=O)O)C(=O)COC(=O)c1c(Cl)cccc1Cl` [Example 58], on mICE, the Ki amounted to 54 nM and the “mICE k3/Ki” value was 278,000 moles^−1 seconds^−1. Moreover, at MCH-2, the Ki was found to be 18 nM and the “MCH-2 k3/Ki” value is 281,000 moles^−1 seconds^−1. Moreover, at MCH-5, the Ki was found to be 7.1 nM and the “MCH-5 k3/Ki” value is on record as 396,000 moles^−1 seconds^−1. Moreover, at CPP32, the “CPP32 k3/Ki” value is listed as 323,000 moles^−1 seconds^−1 and the Ki amounted to 43 nM.
Consider `COC(=O)c1cc(OCC(=O)[C@H](CC(=O)O)NC(=O)[C@@H](NC(=O)C(=O)Nc2cccc3ccccc23)C(C)C)no1` [Example 13], for which the Ki at mICE is 24 nM; at MCH-2 it was 96 nM; on MCH-5, 23 nM; on CPP32, 67 nM.
As for `C[C@H](NC(=O)C(=O)Nc1ccccc1Cl)C(=O)N[C@@H](CC(=O)O)C(=O)COP(=O)(c1ccccc1)c1ccccc1` [Example 57], at mICE, the Ki came to 5.3 nM and the “mICE k3/Ki” value is listed as 1,980,000 moles^−1 seconds^−1. For the same molecule, on MCH-2, the Ki stood at 13 nM and the “MCH-2 k3/Ki” value was 373,000 moles^−1 seconds^−1. Further, on MCH-5, the Ki was determined as 2.1 nM and the “MCH-5 k3/Ki” value is reported as 2,330,000 moles^−1 seconds^−1. Also, on CPP32, the “CPP32 k3/Ki” value is 564,000 moles^−1 seconds^−1 and the Ki was found to be 44 nM.
In the case of `C[C@H](NC(=O)C(=O)Nc1ccccc1C(C)(C)C)C(=O)N[C@@H](CC(=O)O)C(=O)COc1ccccc1F` [Example 31], on mICE, the Ki was determined as 31 nM and the “mICE k3/Ki” value was 442,000 moles^−1 seconds^−1. For the same molecule, at MCH-2, the Ki was 71 nM and the “MCH-2 k3/Ki” value is on record as 54,900 moles^−1 seconds^−1. For the same molecule, at MCH-5, the Ki was found to be 45 nM and the “MCH-5 k3/Ki” value is on record as 119,000 moles^−1 seconds^−1. In addition, at CPP32, the “CPP32 k3/Ki” value is 67,700 moles^−1 seconds^−1 and the Ki is 60 nM.
In the case of `C/C=C/OC(=O)Oc1ccc(OCC(=O)[C@H](CC(=O)O)NC(=O)[C@@H](NC(=O)C(=O)Nc2cccc3ccccc23)C(C)C)cc1` [Example 16], the Ki at mICE was 9.5 nM; at MCH-2, 43 nM.
